Drawing on patent publication US20190040016A1, “INDOLE AND INDAZOLE COMPOUNDS AND THERAPEUTIC USES THEREOF” (REGENTS OF THE UNIVERSITY OF MINNESOTA, priority 2016, published 2019), this text covers IC50 for ten compounds.

Assay [1] deals with MDA-MB-231 (a human triple negative breast cancer cell line). The assay is described as follows: In vitro cytotoxicity evaluation, MDA-MB-231. In kind it is cell-based. As to conditions: MDA-MB-231 cells, average ± SEM of minimum three individual experiments. The source says:
(§1) […] Cell line MDA-MB-231 (a human triple negative breast cancer cell line) and cell line 4T1 (a metastatic murine breast cancer cell line) were used for testing.

Assay [2] has as its system 4T1 (a metastatic murine breast cancer cell line). Put plainly: In vitro cytotoxicity evaluation, 4T1. The class given is cell-based. As to conditions: Mus musculus; 4T1 cells; average ± SEM of minimum three individual experiments.
Excerpt: as §1

Bounds are passed on as bounds.

With `COC(=O)C(O)(CO)COC(=O)c1nn(-c2ccc(N(Cc3ccc(OC)cc3)Cc3ccc(OC)cc3)cc2)c2ccccc12` (centres unmarked) [Compound A-10], the values for the half-maximal inhibitory concentration (IC50) in assay [1] and in assay [2] were 4.96 ± 1.19 µM and 7.12 ± 1.13 µM, respectively.
The matching figures for `COC(=O)C(O)(CO)COC(=O)c1nn(-c2ccc(N(Cc3ccccc3)Cc3ccccc3)cc2)c2ccccc12` (centres unmarked) [Compound A-4]: 2.33 ± 0.48 µM and 4.9 ± 0.42 µM.
On the same counts, the results for `COC(=O)c1nn(-c2ccc(N(Cc3ccccc3)Cc3ccccc3)cc2)c2ccccc12` [Compound A-2] are above 25 µM and above 25 µM.
On the same counts, the results for `C=C(COC(=O)c1nn(-c2ccc(N(Cc3ccc(OC)cc3)Cc3ccc(OC)cc3)cc2)c2ccccc12)C(=O)OC` [Compound A-9] are above 25 µM and above 25 µM.
For `C=C(COC(=O)c1nn(-c2ccc(N(Cc3ccccc3)Cc3ccccc3)cc2)c2ccccc12)C(=O)OC` [Compound A-3], the half-inhibitory concentration (IC50) in assay [1] and in assay [2] was above 25 µM throughout.
Consider `O=C(O)c1nn(-c2ccc(N(Cc3ccccc3)Cc3ccccc3)cc2)c2ccccc12` [Compound A-1], for which the IC50 in assay [1] and in assay [2] was above 25 µM each time.
In the case of `C=C(COC(=O)c1nn(-c2ccc(N(Cc3ccc(F)cc3)Cc3ccc(F)cc3)cc2)c2ccccc12)C(=O)OC` [Compound A-7], the concentration for half-maximal inhibition (IC50) (in general, the concentration that inhibits the measured activity by half) in assay [1] is above 25 µM; in assay [2] it was 10.8 ± 2.28 µM.
On to `COC(=O)C(O)(CO)COC(=O)c1nn(-c2ccc(N(Cc3ccc(F)cc3)Cc3ccc(F)cc3)cc2)c2ccccc12` (centres unmarked) [Compound A-8], for which the IC50 was found to be 3.02 ± 0.68 µM in assay [1] and 2.87 ± 0.86 µM in assay [2].
The matching figures for `COC(=O)C(O)(CO)COC(=O)c1nn(-c2ccc(N(Cc3ccc(Cl)cc3)Cc3ccc(Cl)cc3)cc2)c2ccccc12` (centres unmarked) [Compound A-6]: 4.51 ± 0.95 µM and 4.8 ± 1.01 µM.
The matching figures for `C=C(COC(=O)c1nn(-c2ccc(N(Cc3ccc(Cl)cc3)Cc3ccc(Cl)cc3)cc2)c2ccccc12)C(=O)OC` [Compound A-5]: above 25 µM and above 25 µM.
